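Five concentrations, 48 hours, 96-well plates. GI50 = concentration required for 50% inhibition of growth.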 The source made the active and inactive calls. Cut-off read from the data, not from the text of the source: active = GI50 up to about 1.1 µM and inactive = higher.
Tests used:
Assay in all cases: DTP human tumour cell line panel, 48 h
HT-29 = test system: HT-29
BT-549 = test system: BT-549
MOLT-4 = test system: MOLT-4
HCC 2998 = test system: HCC 2998
SK-MEL-5 = test system: SK-MEL-5
HOP-92 = test system: HOP-92
A549 = test system: A549
U-251 = test system: U-251
HCT-15 = test system: HCT-15
SNB-75 = test system: SNB-75
SNB-19 = test system: SNB-19
MDA-N = test system: MDA-N
OVCAR-5 = test system: OVCAR-5
MCF7 = test system: MCF7
EKVX = test system: EKVX
NCI-H226 = test system: NCI-H226
UACC-257 = test system: UACC-257
SF-268 = test system: SF-268
Hs-578T = test system: Hs-578T
SK-MEL-28 = test system: SK-MEL-28

| SMILES | GI50 (HT-29) | GI50 (BT-549) | GI50 (MOLT-4) | GI50 (HCC 2998) | GI50 (SK-MEL-5) | GI50 (HOP-92) | GI50 (A549) | GI50 (U-251) | GI50 (HCT-15) | GI50 (SNB-75) | GI50 (SNB-19) | GI50 (MDA-N) | GI50 (OVCAR-5) | GI50 (MCF7) | GI50 (EKVX) | GI50 (NCI-H226) | GI50 (UACC-257) | GI50 (SF-268) | GI50 (Hs-578T) | GI50 (SK-MEL-28) |
| --- | --- | --- | --- | --- | --- | --- | --- | --- | --- | --- | --- | --- | --- | --- | --- | --- | --- | --- | --- | --- |
| c1ccc(-c2ccc(-c3cc4ccccc4[nH]3)cc2)cc1 | > 100 µM (inactive) | > 100 µM (inactive) | > 100 µM (inactive) | > 100 µM (inactive) | > 100 µM (inactive) | > 100 µM (inactive) | > 100 µM (inactive) | > 100 µM (inactive) | > 100 µM | > 100 µM (inactive) | > 100 µM (inactive) | > 100 µM (inactive) | > 100 µM (inactive) | > 100 µM (inactive) | > 100 µM (inactive) | > 100 µM (inactive) | > 100 µM (inactive) | > 100 µM (inactive) | > 100 µM (inactive) | > 100 µM (inactive) |
| COC(=O)[C@@H]1c2cc3c(c(O)c2[C@@H](OC2OC(C)C(OC)C(C)(OC)C2OC)C[C@]1(C)O)C(=O)c1c(O)cc2c(c1C3=O)O[C@H]1O[C@]2(C)[C@H](O)[C@@H](N(C)C)[C@@H]1O (stereo not given in full) | 0.00815 µM (active) | 0.0197 µM (active) | 0.0146 µM (active) | 0.00433 µM (active) | 0.00849 µM (active) | 0.00532 µM (active) | 0.0156 µM (active) | 0.00766 µM (active) | 0.247 µM | 0.00608 µM (active) | 0.00502 µM (active) | 0.0471 µM (active) | 0.0815 µM (active) | 0.033 µM (active) | 0.0266 µM (active) | 0.00427 µM (active) | 0.0143 µM (active) | 0.00585 µM (active) | 0.0203 µM (active) | 0.00556 µM (active) |
| Cc1c2cc[n+](C)cc2c(C)c2c1[nH]c1ccc(Cl)cc12 | 3.34 µM (inactive) | 1.26 µM (inactive) | 2.31 µM (inactive) | 1.63 µM (inactive) | 1.09 µM (active) | 2.96 µM (inactive) | 0.197 µM (active) | 0.25 µM (active) | 5.87 µM | 0.242 µM (active) | 0.274 µM (active) | 7.11 µM (inactive) | 8.32 µM (inactive) | 2.59 µM (inactive) | 0.536 µM (active) | 0.272 µM (active) | 8.38 µM (inactive) | 0.29 µM (active) | 0.295 µM (active) | 2.92 µM (inactive) |
| CN(CCCNC(=O)c1n[nH]c2c1ccc1ccccc12)CCCNC(=O)c1n[nH]c2c1ccc1ccccc12 | 14.6 µM (inactive) | 15.6 µM (inactive) | 10.4 µM (inactive) | 1.9 µM (inactive) | 4.68 µM (inactive) | 14.6 µM (inactive) | 19.3 µM (inactive) | 14.8 µM (inactive) | 17 µM | 16.3 µM (inactive) | 18.8 µM (inactive) | 2.14 µM (inactive) | 20.4 µM (inactive) | 15 µM (inactive) | 21.4 µM (inactive) | 13.4 µM (inactive) | 4.24 µM (inactive) | 14.7 µM (inactive) | 16.8 µM (inactive) | 2.09 µM (inactive) |
| O=C1c2cccnc2-c2nccc3ccnc1c23 | 0.575 µM (active) | 1.43 µM (inactive) | 0.413 µM (active) | 1.4 µM (inactive) | 0.61 µM (active) | 0.687 µM (active) | 1.6 µM (inactive) | 1.05 µM (active) | 0.366 µM | 1.08 µM (active) | 1.03 µM (active) | 0.2 µM (active) | 2.07 µM (inactive) | 0.24 µM (active) | 1.58 µM (inactive) | 1.58 µM (inactive) | 0.964 µM (active) | 1.11 µM (active) | 2.02 µM (inactive) | 1.2 µM (inactive) |
| Cc1ccc(Nc2nnc(-c3ccc4c(c3)OCO4)o2)c(C)c1 | > 100 µM (inactive) | > 100 µM (inactive) | 1.71 µM (inactive) | > 100 µM (inactive) | > 100 µM (inactive) | 41.9 µM (inactive) | > 100 µM (inactive) | 39.2 µM (inactive) | > 100 µM | > 100 µM (inactive) | 40.2 µM (inactive) | > 100 µM (inactive) | > 100 µM (inactive) | 38.8 µM (inactive) | 82 µM (inactive) | > 100 µM (inactive) | > 100 µM (inactive) | 64.4 µM (inactive) | > 100 µM (inactive) | > 100 µM (inactive) |
| CC(C)(C)c1cc2c(O)c(c1)Cc1cc(C(C#N)(Cc3ccc4ccccc4c3)Cc3ccc4ccccc4c3)cc(c1O)Cc1cc(C(C)(C)C)cc(c1O)Cc1cc(C(C#N)(Cc3ccc4ccccc4c3)Cc3ccc4ccccc4c3)cc(c1O)C2 | > 100 µM (inactive) | > 100 µM (inactive) | > 100 µM (inactive) | > 100 µM (inactive) | > 100 µM (inactive) | > 100 µM (inactive) | > 100 µM (inactive) | 67 µM (inactive) | > 100 µM | > 100 µM (inactive) | > 100 µM (inactive) | > 100 µM (inactive) | > 100 µM (inactive) | > 100 µM (inactive) | > 100 µM (inactive) | > 100 µM (inactive) | > 100 µM (inactive) | > 100 µM (inactive) | > 100 µM (inactive) | > 100 µM (inactive) |
| CC[C@@H]1CN(C)[C@H]2Cc3c([nH]c4ccccc34)C(=O)C[C@H]1C2C(=O)OC (stereo not given in full) | > 100 µM (inactive) | > 100 µM (inactive) | > 93.8 µM (inactive) | > 100 µM (inactive) | > 100 µM (inactive) | > 100 µM (inactive) | > 100 µM (inactive) | > 100 µM (inactive) | > 100 µM | > 91.4 µM (inactive) | > 100 µM (inactive) | > 100 µM (inactive) | > 100 µM (inactive) | > 100 µM (inactive) | > 100 µM (inactive) | > 100 µM (inactive) | > 100 µM (inactive) | > 100 µM (inactive) | > 100 µM (inactive) | > 100 µM (inactive) |
| CC(=O)Oc1ccc2c(c1)CC[C@@H]1C2[C@@H](O[N+](=O)[O-])C[C@@]2(C)C1CC[C@@H]2O (stereo not given in full) | 30.8 µM (inactive) | 62.4 µM (inactive) | 24.5 µM (inactive) | 10.6 µM (inactive) | 24.7 µM (inactive) | > 88.1 µM (inactive) | 37.3 µM (inactive) | 27.6 µM (inactive) | 28.9 µM | 45.7 µM (inactive) | 35.6 µM (inactive) | 5.83 µM (inactive) | 33 µM (inactive) | 41 µM (inactive) | 16.8 µM (inactive) | 48.8 µM (inactive) | 67.5 µM (inactive) | 32.6 µM (inactive) | 14.4 µM (inactive) | 48.9 µM (inactive) |
| CCOC(=O)/C=C(\C(=O)OCC)n1cc(C)c(=O)n(Cc2cnnn2CCCCOC(C)=O)c1=O | 5.98 µM (inactive) | 8.28 µM (inactive) | 2.64 µM (inactive) | 21 µM (inactive) | 17.1 µM (inactive) | 2.1 µM (inactive) | 24.5 µM (inactive) | 17.3 µM (inactive) | 2.84 µM | 18 µM (inactive) | 25.4 µM (inactive) | 20.3 µM (inactive) | 17.4 µM (inactive) | 4.78 µM (inactive) | 11.3 µM (inactive) | 7.43 µM (inactive) | 15.7 µM (inactive) | 15.7 µM (inactive) | 17 µM (inactive) | 7.35 µM (inactive) |
| CCCCCCCCCCCCCCCC(=O)N(CCCCCCCCCCC(=O)O)CC(O)C(O)C(OC1OC(CO)C(O)C(O)C1O)C(O)CO (stereo not given) | 22.8 µM (inactive) | 25.4 µM (inactive) | 28.4 µM (inactive) | 21.1 µM (inactive) | 33.5 µM (inactive) | 41.3 µM (inactive) | > 100 µM (inactive) | 18 µM (inactive) | 41.2 µM | 38.9 µM (inactive) | 24.5 µM (inactive) | 34.7 µM (inactive) | > 100 µM (inactive) | 53.6 µM (inactive) | 37.6 µM (inactive) | > 100 µM (inactive) | 22 µM (inactive) | 21.3 µM (inactive) | 40.5 µM (inactive) | 18.5 µM (inactive) |
| CN1CCN(Cc2nc3cccc4c3c([n+]2[O-])-c2ccccc2-4)CC1 | 12.4 µM (inactive) | 39 µM (inactive) | 12.4 µM (inactive) | 53 µM (inactive) | 19.1 µM (inactive) | 36 µM (inactive) | 14.8 µM (inactive) | 20 µM (inactive) | 29 µM | 33 µM (inactive) | 16.9 µM (inactive) | 12.6 µM (inactive) | > 34.2 µM (inactive) | 12.8 µM (inactive) | 31.4 µM (inactive) | 26.8 µM (inactive) | 24.4 µM (inactive) | 17.9 µM (inactive) | 34.9 µM (inactive) | 31.7 µM (inactive) |
